Assays:
[1] = system: murine squamous carcinoma cell line (SCCVII); assay: SCCVII floor-of-mouth tumor growth, docetaxel with or without oral rhLF; type: in vivo, C3H mice; details: docetaxel i.v. bolus 31.3 mg/kg Day 8, in combination rhLF 200 mg/kg oral days 5 to 12
Protocol: A murine squamous carcinoma cell line (SCCVII) was injected into the floor of the mouth through the neck skin of immunocompetent C3H mice (Day 0) as described in Example 7. On Day 5 after initial implantation, tumors were measured for the baseline, then treated with either oral placebo alone (once daily from days 5 to 12; 6 animals), placebo and docetaxel (i.v. bolus of 31.3 mg/kg docetaxel on Day 8; 9 animals), or docetaxel plus oral rhLF (200 mg/kg, administered once daily by gavage from days 5 to 12; 9 animals). Animals were sacrificed on Day 14 and tumors measured. Docetaxel alone caused an inhibition of tumor growth relative to placebo and the combination of rhLF and docetaxel induced a further growth inhibition.

[2] = system: murine squamous carcinoma cell line (SCCVII); assay: SCCVII floor-of-mouth tumor growth, oral rhLF and/or cisplatin; type: in vivo, C3H mice; details: in combination rhLF 200 mg/Kg oral days 5-12
Protocol: A murine squamous carcinoma cell line (SCCVII) was injected into the floor of the mouth through the neck skin of immunocompetent C3H mice (Day 0). […] Tumors were measured in three dimensions with calipers.
Tumor-bearing mice were randomized into a control group and seven groups receiving rhLF and/or cisplatin. RhLF (4 mg; 200 mg/Kg) was administered once daily by oral gavage for 8 days on days 5 through 12. Cisplatin was administered as a single dose of 5 mg/Kg given intraperitoneally either at the start of rhLF (day 5), in the middle (day 8) or at the end (day 12) of rhLF therapy. Animals were sacrificed on day 12 post-implantation and the residual tumor masses were measured and processed for later additional analyses.
A murine squamous carcinoma cell line (SCCVII) was injected into the floor of the mouth through the neck skin of immunocompetent C3H mice (Day 0) as described in Example 6. On Day 5 days after initial implantation, tumors were measured for the baseline, then treated with either cisplatin (Day 8, i.p., 5 mg/kg) alone or cisplatin plus three doses of oral rhLF (daily by gavage for 7-8 days on days 5 through 11/12). Animals were sacrificed on Day 11/12 and tumors measured.

| SMILES | TGI (%) Relative to Placebo ([1]; Day 14) | Tumor Growth ([1]; measured Day 14) | TGI (%) Relative to Placebo ([2]; cisplatin 5 mg/Kg i.p. on day 5) | TGI (%) Relative to Placebo ([2]; cisplatin 5 mg/Kg i.p. on day 8) | TGI (%) Relative to Placebo ([2]; cisplatin 5 mg/Kg i.p. on day 12) | TGI (%) Relative to Placebo ([2]; pooled cisplatin schedules (day 5, 8, 12)) |
| --- | --- | --- | --- | --- | --- | --- |
| CC(=O)O[C@@]12CO[C@@H]1C[C@H](O)[C@@]1(C)C(=O)[C@H](O)C3=C(C)[C@@H](OC(=O)[C@H](O)[C@@H](NC(=O)OC(C)(C)C)c4ccccc4)C[C@@](O)([C@@H](OC(=O)c4ccccc4)[C@H]21)C3(C)C [Docetaxel] | 59% | 2,103 | – | – | – | – |
| N.N.[Cl][Pt][Cl] [CP, Cisplatin] | – | – | 68% | 6% | 42% | 38% |

From patent US20100137208A1, “INTRATUMORALLY ADMINISTERED LACTOFERRIN IN THE TREATMENT OF MALIGNANTNEOPLASMS AND OTHER HYPERPROLIFERATIVE DISEASES” (priority 2002, published 2010)
